This note sets out measurements from US20260306502A1, “MITOCHONDRIAL UNCOUPLERS FOR TREATMENT OF METABOLIC DISEASES AND CANCER” (Mito Biopharma, LLC, priority 2022, published 2026).

The test system of series [1] is cultured mammalian cells, the NIH-3T3 cells, C2C12 cells, and other mammalian cell lines. Kind of series: Mitochondrial membrane potential (MMP) assay, TMRE (or DilC1(5)) staining, related to OCR induction. It is filed as cell-based. The settings on record: ratio of concentration leading to 10% MMP retention (90% MMP loss, TMRE) to minimal concentration leading to OCR increase. Here is the method:
Mitochondrial membrane potential assay was performed using the standard TMRE (tetramethylrhodamine ethyl ester) staining method with cultured mammalian cells, the NIH-3T3 cells, C2C12 cells, and other mammalian cell lines. Cells were seeded in 6-well plates and cultured in DMEM medium supplemented with 10% fetal bovine serum and 2 mM glutamine. Cells were allowed to grow to the logarithmic growth phase prior to experiments. The cells were treated with each individual compound at various concentrations for two hours, followed by staining with TMRE at a final concentration of 100 nM for 15 minutes. The cells were then washed once with PBS, and examined under fluorescence microscopy. Cells treated with various concentrations of niclosamide ethanolamine were used as a positive control.
In some examples, mitochondrial membrane potential was measured with DilC1(5) staining. Briefly, DilC1(5) was added to the cells to 50 nM final concentration and the cells were incubated at 37° C., 5% CO2, for 15 to 30 minutes. Cells were washed once by adding 2 mL of warm phosphate-buffered saline (PBS). Mitochondrial staining was determined by fluorescence microscopy with 633 nm excitation using standard filters for far-red emission.
Using the ratio between C10% TMRE (the concentration at which 10% MMP remains, i.e. 90% MMP is lost) and Cmin-OCR (the concentration at which minimal OCR induction is observed), we categorized the MMP-retaining uncouplers into two groups.

Series [2] relates to C2C12 cells. Put plainly: Mitochondrial uncoupling activity by oxygen consumption rate (OCR) assay, Seahorse, in presence of oligomycin. The note with it: for minimal effective concentration: Mus musculus, C2C12, in the presence of oligomycin 2.5 μM, read-out: COCR-min: minimal concentration increasing OCR in the presence of oligomycin. It is filed as cell-based, mouse. Here is the method:
By definition, mitochondrial uncoupling is the decoupling of mitochondrial electron transport chain activity (mitochondrial oxidation) from ATP synthesis by mitochondrial ATP synthase. Technically, mitochondrial uncoupling activity is defined by the ability of a chemical compound to induce oxygen consumption of cells or isolated mitochondria in the presence of a mitochondrial ATP synthase inhibitor such as oligomycin. Accordingly, mitochondrial uncoupling activity was determined by oxygen consumption rate assay with a Seahorse XF96 or a Seahorse XF24 instrument following the vendor's instruction, using mouse myoblast C2C12 cells grown in a medium containing 10% fetal bovine serum. OCR was measured stepwise under the following conditions: first under normal growth conditions; then. OCR was measured after oligomycin was added to reach a final concentration of 2.5 μM); then OCR was measured after the compound was further added at varying concentrations. Finally, rotenone and antimycin A were added to confirm that the measurement was mitochondrial oxygen consumption (rotenone and […] mitochondrial electron transport chain inhibitors).
COCR-min the minimal concentration required for each compound to induce OCR in the presence of oligomycin, of disclosed compounds, was also determined by varying the final concentration of the compound added to the Seahorse OCR analysis experiment as described above (FIG. 2, varying testing compound concentration). Table 8 summarizes the mitochondrial uncoupling activity of disclosed compounds, as represented by COCR-min.

Series [3] in a line: PO pharmacokinetic study, oral exposure (Example B3). Format: in vivo. The settings on record: blood, po; for AUC at 24 h: 10 mg/kg gavage; for AUC(0-t) at 24 h: 10 mg/kg. On the procedure: The blood concentration of the compound was then determined at 0 (pre-dosing), 5 min, 15 min, 30 min, 1 hr, 2 hr, 4 hr, 8 hr, 24 hr time points by LC-MS/MS analysis (See Tables 1 and 2, vide supra).

As a reminder, the AUC is concentration integrated over time. Lower therefore signals low exposure. What is called AUC(0-t) is exposure summed from dosing to a finite time, without extrapolation to infinity. A low value points to low exposure.

Take `O=C(Nc1ccc(C(F)(F)F)cc1Cl)c1cc(Cl)ccc1O`: in series [1], the C10%TMRE/Cmin-OCR entry was “[drawing 351]”.

As for `O=C(Nc1ccc(C(F)(F)F)nc1)c1cc(Cl)ccc1O`, in series [1], the C10%TMRE/Cmin-OCR entry was “[drawing 354]”. Regarding `COCCN(C)Cc1cc(Cl)cc(C(=O)Nc2nc3ccc(C(F)(F)F)cc3s2)c1O` [Compound 3, 5-chloro-2-hydroxy-3-(((2-methoxyethyl)(methyl)amino)methyl)-N-(6-(trifluoromethyl)benzo[d]thiazol-2-yl)benzamide], the minimal effective concentration in series [2] was below 5 µM. In series [3], this molecule had an exposure (AUC) at 24 h of 10000 to 30000 ng·h/mL. The matching figures for `COCCOCc1cc(Cl)cc(C(=O)Nc2ccc(C(F)(F)F)cc2Cl)c1O` [Compound 4, 5-chloro-N-(2-chloro-4-(trifluoromethyl)phenyl)-2-hydroxy-3-((2-methoxyethoxy)methyl)benzamide]: below 5 µM and 30000 to 60000 ng·h/mL.

For `COCc1cc(Cl)cc(C(=O)Nc2nc3ccc(C(F)(F)F)cc3s2)c1O` [Compound 9, 5-chloro-2-hydroxy-3-(methoxymethyl)-N-(6-(trifluoromethyl)benzo[d]thiazol-2-yl)benzamide], in series [2], the minimal effective concentration is below 5 µM. In series [3], this molecule registered an AUC(0-t) at 24 h of 180000 ng·h/mL and an AUC at 24 h above 120000 ng·h/mL. Regarding `O=C(Nc1nc2ccc(C(F)(F)F)cc2s1)c1cc(Cl)cc(C2CCOC2)c1O` (centres unmarked) [Compound 14, 5-chloro-2-hydroxy-3-(tetrahydrofuran-3-yl)-N-(6-(trifluoromethyl)benzo[d]thiazol-2-yl)benzamide], the minimal effective concentration in series [2] was below 5 µM. For the same molecule, in series [3], the AUC at 24 h is above 120000 ng·h/mL.

As to `Cl.O=C(Nc1nc2ccc(C(F)(F)F)cc2s1)c1cc(Cl)cc(CCN2CCOCC2)c1O` [Compound 17, 5-chloro-2-hydroxy-3-(2-morpholinoethyl)-N-(6-(trifluoromethyl)benzo[d]thiazol-2-yl)benzamide], in series [2], the minimal effective concentration was below 5 µM. The molecule further displayed an AUC at 24 h in series [3] of 10000 to 30000 ng·h/mL. As to `O=C(Nc1nc2ccc(C(F)(F)F)cc2s1)c1cc(Cl)cc(CN2CCCCC2)c1O` [Compound 26, 5-chloro-2-hydroxy-3-(piperidin-1-ylmethyl)-N-(6-(trifluoromethyl)benzo[d]thiazol-2-yl)benzamide], the minimal effective concentration in series [2] was below 5 µM. The AUC at 24 h in series [3] fell in the range of 10000 to 30000 ng·h/mL. The matching figures for `O=C(Nc1nc2ccc(C(F)(F)F)cc2s1)c1cc(Cl)cc(CN2CCC2)c1O` [Compound 27, 3-(azetidin-1-ylmethyl)-5-chloro-2-hydroxy-N-(6-(trifluoromethyl)benzo[d]thiazol-2-yl)benzamide]: below 5 µM and 30000 to 60000 ng·h/mL. The matching figures for `COC1CCN(Cc2cc(Cl)cc(C(=O)Nc3nc4ccc(C(F)(F)F)cc4s3)c2O)C1` (centres unmarked) [Compound 32, 5-chloro-2-hydroxy-3-((3-methoxypyrrolidin-1-yl)methyl)-N-(6-(trifluoromethyl)benzo[d]thiazol-2-yl)benzamide]: below 5 µM and 30000 to 60000 ng·h/mL. Take `N#CC1CCN(Cc2cc(Cl)cc(C(=O)Nc3nc4ccc(C(F)(F)F)cc4s3)c2O)C1` (centres unmarked) [Compound 36, 5-chloro-3-((3-cyanopyrrolidin-1-yl)methyl)-2-hydroxy-N-(6-(trifluoromethyl)benzo[d]thiazol-2-yl)benzamide]: in series [2], the minimal effective concentration is below 5 µM. Besides, the C10%TMRE/Cmin-OCR in series [1] was around 36. `COCCOCc1cc(C(F)(F)F)cc2sc(NC(=O)c3cc(Cl)cc(CN4CCOCC4)c3O)nc12` [Compound 65, 5-chloro-2-hydroxy-N-(4-((2-methoxyethoxy)methyl)-6-(trifluoromethyl)benzo[d]thiazol-2-yl)-3-(morpholinomethyl)benzamide]: in series [2], the minimal effective concentration was below 5 µM. Also, in series [3], the AUC at 24 h lay in the range of 60000 to 120000 ng·h/mL. As to `COCCOCc1cc(C(F)(F)F)cc2sc(NC(=O)c3cc(Cl)cc(CN4CCCCC4)c3O)nc12` [Compound 66, 5-chloro-2-hydroxy-N-(4-((2-methoxyethoxy)methyl)-6-(trifluoromethyl)benzo[d]thiazol-2-yl)-3-(piperidin-1-ylmethyl)benzamide], in series [2], the minimal effective concentration is below 5 µM. The molecule also showed an AUC at 24 h in series [3] of 30000 to 60000 ng·h/mL. Take `COCCN(CCOC)Cc1cc(Cl)cc(C(=O)Nc2nc3c(COC)cc(C(F)(F)F)cc3s2)c1O` [Compound 69, 3-((bis(2-methoxyethyl)amino)methyl)-5-chloro-2-hydroxy-N-(4-(methoxymethyl)-6-(trifluoromethyl)benzo[d]thiazol-2-yl)benzamide]: the minimal effective concentration in series [2] is below 5 µM. In addition, the “effect on oxygen consumption rate (OCR)” value in series [2] (in words) is listed as “increase OCR in the presence of oligomycin”. In addition, in series [3], the AUC at 24 h was 10000 to 30000 ng·h/mL. Consider `Cc1cc(Cl)cc(C(=O)Nc2nc3c(CN4CCN(C)CC4)cc(C(F)(F)F)cc3s2)c1O` [Example 78, 5-chloro-2-hydroxy-3-methyl-N-(4-((4-methylpiperazin-1-yl)methyl)-6-(trifluoromethyl)benzo[d]thiazol-2-yl)benzamide], for which the minimal effective concentration in series [2] was below 5 µM. In series [3], the AUC(0-t) at 24 h was 58400 ng·h/mL and the AUC at 24 h was 30000 to 60000 ng·h/mL. `COc1cc(Cl)cc(C(=O)Nc2nc3ccc(C(F)(F)F)cc3s2)c1O` [Example 97, 5-chloro-2-hydroxy-3-methoxy-N-(6-(trifluoromethyl)benzo[d]thiazol-2-yl)benzamide]: the minimal effective concentration in series [2] is below 5 µM. In addition, the AUC at 24 h in series [3] is 10000 to 30000 ng·h/mL.

As to `O=C(Nc1nc2ccc(C(F)(F)F)cc2s1)c1cc(Cl)ccc1O` [drawing 300], the C10%TMRE/Cmin-OCR result in series [1] is “[drawing 300]”.

Regarding `O=C(Nc1nc2ccc(C(F)(F)F)cc2s1)c1cc(Cl)ccc1O` [drawing 303], in series [1], the C10%TMRE/Cmin-OCR result is “[drawing 303]”. Take `O=C(Nc1nc2ccc(C(F)(F)F)cc2s1)c1cc(Cl)ccc1O` [drawing 306]: the C10%TMRE/Cmin-OCR result in series [1] was “[drawing 306]”. Consider `O=C(Nc1nc2ccc(C(F)(F)F)cc2s1)c1cc(Cl)ccc1O` [drawing 309], for which, in series [1], the C10%TMRE/Cmin-OCR entry was “[drawing 309]”. The same measure, in the same setting: then `O=C(Nc1nc2ccc(C(F)(F)F)cc2s1)c1cc(Cl)ccc1O` [drawing 312], with “[drawing 312]”. In the case of `O=C(Nc1nc2ccc(C(F)(F)F)cc2s1)c1cc(Cl)ccc1O` [drawing 315], in series [1], the C10%TMRE/Cmin-OCR result is “[drawing 315]”. On the same count and under the same terms, the value for `O=C(Nc1nc2ccc(C(F)(F)F)cc2s1)c1cc(Cl)ccc1O` [drawing 318] was “[drawing 318]”; that for `O=C(Nc1nc2ccc(C(F)(F)F)cc2s1)c1cc(Cl)ccc1O` [drawing 321] was “[drawing 321]”. On the same count and under the same terms, then `Cc1cc(Cl)cc(C(=O)Nc2nc3ccc(C(F)(F)F)cc3s2)c1O` [drawing 324], with “[drawing 324]”; and `Cc1cc(Cl)cc(C(=O)Nc2nc3ccc(C(F)(F)F)cc3s2)c1O` [drawing 327], with “[drawing 327]”; and `Cc1cc(Cl)cc(C(=O)Nc2nc3ccc(C(F)(F)F)cc3s2)c1O` [drawing 330], with “[drawing 330]”.

In the case of `Cc1cc(Cl)cc(C(=O)Nc2nc3ccc(C(F)(F)F)cc3s2)c1O` [drawing 333], in series [1], the C10%TMRE/Cmin-OCR result is “[drawing 333]”.

Take `COCc1cc(C(F)(F)F)cc2sc(NC(=O)c3cc(Cl)cc(C)c3O)nc12` [drawing 336]: the C10%TMRE/Cmin-OCR entry in series [1] was “[drawing 336]”. On to `COCCOCc1cc(C(F)(F)F)cc2sc(NC(=O)c3cc(Cl)cc(C)c3O)nc12` [drawing 339], for which the C10%TMRE/Cmin-OCR entry in series [1] was “[drawing 339]”.

As to `COCCOCc1cc(C(F)(F)F)cc2sc(NC(=O)c3cc(Cl)cc(C)c3O)nc12` [drawing 342], in series [1], the C10%TMRE/Cmin-OCR entry is “[drawing 342]”.

For the molecule `COCCOCc1cc(C(F)(F)F)cc2sc(NC(=O)c3cc(Cl)cc(C)c3O)nc12` [drawing 345], the C10%TMRE/Cmin-OCR result in series [1] is “[drawing 345]”. Still for that read-out and setting: then `COCCOCc1cc(C(F)(F)F)cc2sc(NC(=O)c3cc(Cl)cc(C)c3O)nc12` [drawing 348], with “[drawing 348]”.
